SMILES strings stand for the structures. Read-outs that look alike come from different tables or passages of the source.

For orientation: EC50 means the concentration giving half of the maximal effect.

For this experiment, the target named is T1, Full-length glucokinase (beta cell isoform) (Homo sapiens, UniProt P35557).
T1 construct: Full-length glucokinase (beta cell isoform) was His-tagged at N-terminus; His tag (N); made in house
T1 sequence (P35557 1-465): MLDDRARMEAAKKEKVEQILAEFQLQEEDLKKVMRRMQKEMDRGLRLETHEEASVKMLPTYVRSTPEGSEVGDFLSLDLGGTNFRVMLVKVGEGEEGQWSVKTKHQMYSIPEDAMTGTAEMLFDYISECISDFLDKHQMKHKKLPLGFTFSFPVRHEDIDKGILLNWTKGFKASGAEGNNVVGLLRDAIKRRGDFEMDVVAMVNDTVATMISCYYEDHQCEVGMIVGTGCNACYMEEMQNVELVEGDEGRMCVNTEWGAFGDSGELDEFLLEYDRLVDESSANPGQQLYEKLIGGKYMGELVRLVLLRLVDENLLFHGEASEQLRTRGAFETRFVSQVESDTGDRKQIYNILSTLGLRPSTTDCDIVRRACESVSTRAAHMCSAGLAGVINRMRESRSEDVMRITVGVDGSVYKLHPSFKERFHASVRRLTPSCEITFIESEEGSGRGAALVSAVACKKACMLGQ
Nature of the experiment: Glucokinase biochemical assay (PK/LDH-coupled, NADH depletion at 340 nm): % activation, EC50, % max activation. Conditions: for activation at 10 µM: read-out: % Activation at 10 uM; for Emax: read-out: % Max Activation. The procedure, abridged:
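N-terminally His-tagged full-length human beta-cell glucokinase, room temperature, 5 mM glucose, 1 mM ATP, PK/LDH-coupled with 0.7 mM NADH, 1% DMSO final. Initial velocity from the 200–900 s slope of A340 decline. % activation = (Va/Vo−1)×100, measured across compound concentrations.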

Setting [1] is: 10 uM compound, 5 mM glucose, % Activation=(Va/Vo−1)×100.
The mark [2] stands for this setting: 5 mM glucose, GK activation, read-out: EC50.
[3] abbreviates: 5 mM glucose, fitted maximum activation.

Regarding `Cn1ccc(NC(=O)c2cc(Oc3ccc(S(C)(=O)=O)cc3)c3c(c2)OC(C)(C)C3)n1` [Example 16, 4-(4-Methanesulfonyl-phenoxy)-2,2-dimethyl-2,3-dihydro-benzofuran-6-carbo-xylic acid(1-methyl-1H-pyrazol-3-yl)-amide], the activation at 10 µM under setting [1] worked out at 213%. The EC50 under setting [2] was 0.506 µM. In addition, the Emax under setting [3] was 192%.

With `CN(C)C(=O)c1ccc(Oc2cc(C(=O)Nc3ccon3)cc3c2CC(C)(C)O3)cc1` [Example 158, 4-(4-Dimethylcarbamoyl-phenoxy)-2,2-dimethyl-2,3-dihydro-benzofuran-6-carboxylic acid isoxazol-3-ylamide], under setting [1], the activation at 10 µM turned out to be 115%. Under setting [2], the EC50 came to 0.47 µM. Also, the Emax under setting [3] worked out at 106%.

Regarding `CCc1cc2c(Oc3ccc(S(C)(=O)=O)cc3)cc(C(=O)Nc3ccc(C)cn3)cc2o1` [Example 274, 2-Ethyl-N-(5-methylpyridin-2-yl)-4-[4-(methylsulfonyl)-phenoxy]-1-benzofuran-6-carboxamide], the activation at 10 µM under setting [1] came to 131%. Besides, the EC50 under setting [2] stood at 2.4 µM. In addition, the Emax under setting [3] amounted to 121%.

Regarding `CN(C)C(=O)c1ccc(Oc2cc(C(=O)Nc3ccn(C)n3)cc3c2CC(C)(C)O3)cc1F` [Example 54, 4-(4-Dimethylcarbamoyl-3-fluoro-phenoxy)-2,2-dimethyl-2,3-dihydro-benzofuran-6-carboxylic acid(1-methyl-1H-pyrazol-3-yl)-amide], the activation at 10 µM under setting [1] stood at 83.3%. Moreover, under setting [2], the EC50 was 0.0807 µM. Besides, under setting [3], the Emax was 101%.

As to `COCC1(C)Cc2c(Oc3ccc(C(=O)N4CCC4)c(F)c3)cc(C(=O)Nc3ccn(C)n3)cc2O1` (centres unmarked) [Example 242, 4-[4-(Azetidine-1-carbonyl)-3-fluoro-phenoxy]-2-methoxymethyl-2-methyl-2,3-dihydro-benzofuran-6-carboxylic acid (1-methyl-1H-pyrazol-3-yl)-amide], the activation at 10 µM under setting [1] worked out at 140%. For the same compound, under setting [2], the EC50 amounted to 0.063 µM. Besides, the Emax under setting [3] turned out to be 144%.

Consider `COCc1cc2c(Oc3ccc(S(C)(=O)=O)cc3)cc(C(=O)Nc3cc(OC)ccn3)cc2o1` [Example 314, 2-(Methoxymethyl)-N-(4-methoxypyridin-2-yl)-4-[4-(methylsulfonyl)phenoxy]-1-benzofuran-6-carboxamide], for which the activation at 10 µM under setting [1] amounted to 47.3%. The EC50 under setting [2] came to 0.33 µM. Moreover, under setting [3], the Emax was found to be 46%.

Take `Cc1ccc(NC(=O)c2cc(Oc3ccc(S(C)(=O)=O)c(F)c3)c3c(c2)OC(C)(CO)C3)nc1` (centres unmarked) [Example 233, 4-(3-Fluoro-4-methanesulfonyl-phenoxy)-2-hydroxymethyl-2-methyl-2,3-dihydro-benzofuran-6-carboxylic acid (5-methyl-pyridin-2-yl)-amide]: under setting [1], the activation at 10 µM worked out at 201%. Under setting [2], the EC50 amounted to 0.064 µM. The Emax under setting [3] was found to be 165%.

Take `CN(C)C(=O)c1ccc(Oc2cc(C(=O)Nc3ccc(C(N)=O)cn3)cc3c2CC(C)(C)O3)cc1F` [Example 146, 6-{[4-(4-Dimethylcarbamoyl-3-fluoro-phenoxy)-2,2-dimethyl-2,3-dihydro-benzofuran-6-carbonyl]-amino}-nicotinamide]: under setting [1], the activation at 10 µM was 25.1%.

As for `Cn1ccc(NC(=O)c2cc(Oc3ccc(C(=O)N4CC(O)C4)c(F)c3)c3c(c2)OC(C)(C)C3)n1` [Example 55, 4-[3-Fluoro-4-(3-hydroxy-azetidine-1-carbonyl)-phenoxy]-2,2-dimethyl-2,3-dihydro-benzofuran-6-carboxylic acid(1-methyl-1H-pyrazol-3-yl)-amide], under setting [1], the activation at 10 µM was found to be 143%. For the same compound, the EC50 under setting [2] was 0.68 µM. In addition, under setting [3], the Emax stood at 129%.

Take `Cn1ccc(NC(=O)c2cc(OC3CN(S(C)(=O)=O)C3)c3c(c2)OC(C)(C)C3)n1` [Example 193, 4-(1-Methanesulfonyl-azetidin-3-yloxy)-2,2-dimethyl-2,3-dihydro-benzofuran-6-carboxylic acid (1-methyl-1H-pyrazol-3-yl)-amide]: the activation at 10 µM under setting [1] amounted to 116%. Moreover, the EC50 under setting [2] is 8.8 µM. Also, under setting [3], the Emax amounted to 237%.

Consider `COCC1Cc2c(Oc3ccc(C(=O)N4CCC4)c(F)c3)cc(C(=O)Nc3ccn(C)n3)cc2O1` (centres unmarked) [Example 204, 4-[4-(Azetidine-1-carbonyl)-3-fluoro-phenoxy]-2-methoxymethyl-2,3-dihydro-benzofuran-6-carboxylic acid (1-methyl-1H-pyrazol-3-yl)-amide], for which the activation at 10 µM under setting [1] is 73.9%. For the same compound, under setting [2], the EC50 worked out at 2 µM. The Emax under setting [3] is 94%.

For `Cc1ccc(NC(=O)c2cc(OC3CN(C(=O)N(C)C)C3)c3cc(C)oc3c2)nc1` [Example 324, N,N-Dimethyl-3-[(2-methyl-6-{[(5-methylpyridin-2-yl)amino]-carbonyl}-1-benzofuran-4-yl)oxy]azetidine-1-carboxamide], under setting [1], the activation at 10 µM turned out to be 18.2%.

For `Cc1ncsc1CCOc1cc(C(=O)Nc2ccn(C)n2)cc2c1CC(C)(C)O2` [Example 99, 2,2-Dimethyl-4-[2-(4-methyl-thiazol-5-yl)-ethoxy]-2,3-dihydro-benzofuran-6-carboxylic acid (1-methyl-1H-pyrazol-3-yl)-amide], under setting [1], the activation at 10 µM turned out to be 112%. In addition, the EC50 under setting [2] came to 4.3 µM. The Emax under setting [3] amounted to 136%.

Regarding `CC1Cc2c(cc(Oc3ccc(S(C)(=O)=O)cc3)cc2C(=O)Nc2ccccn2)O1` (centres unmarked) [Example 1, 6-(4-Methanesulfonyl-phenoxy)-2-methyl-2,3-dihydrobenzofuran-4-carboxylic acid pyridin-2-ylamide], the activation at 10 µM under setting [1] amounted to 101%. The EC50 under setting [2] stood at 8.7 µM. The Emax under setting [3] amounted to 144%.

As to `Cc1ccc(NC(=O)c2cc(Oc3ccc(C(=O)N4CCC4)c(F)c3)c3c(c2)OC(C)(CO)C3)nc1` (centres unmarked) [Example 240, 4-[4-(Azetidine-1-carbonyl)-3-fluoro-phenoxy]-2-hydroxymethyl-2-methyl-2,3-dihydro-benzofuran-6-carboxylic acid (5-methyl-pyridin-2-yl)-amide], the activation at 10 µM was determined as 83% and the Emax is 94%. The EC50 (EC50 (uM), 5 mM glucose, GK activation) came to 0.021 µM.

As for `COCc1cc2c(Oc3ccc(S(C)(=O)=O)cc3)cc(C(=O)Nc3cnn(C)n3)cc2o1` [Example 313, 2-(Methoxymethyl)-4-[4-(methylsulfonyl)phenoxy]-N-(2-methyl-2H-1,2,3-triazol-4-yl)-1-benzofuran-6-carboxamide], the activation at 10 µM under setting [1] worked out at 131%. Under setting [2], the EC50 stood at 0.92 µM. The Emax under setting [3] came out at 155%.

Turning to `CN(C)C(=O)c1ccc(Oc2cc(C(=O)Nc3ccccn3)cc3c2CC(C)(C)O3)cc1` [Example 157, 4-(4-Dimethylcarbamoyl-phenoxy)-2,2-dimethyl-2,3-dihydro-benzofuran-6-carboxylic acid pyridin-2-ylamide], the activation at 10 µM under setting [1] came out at 69.2%. Under setting [2], the EC50 came to 0.19 µM. Under setting [3], the Emax amounted to 71%.

In the case of `Cc1ccc(NC(=O)c2cc(Oc3ccc(S(C)(=O)=O)cc3)c3c(c2)C(=O)N(C2CC2)C3)nc1` [Example 385, 2-Cyclopropyl-N-(5-methylpyridin-2-yl)-7-(4-(methylsulfonyl)-phenoxy)-3-oxoisoindoline-5-carboxamide], for the setting “5 mM glucose, 1 mM ATP, room temperature, read-out: EC50”, the EC50 stood at 4.5 µM. Also, the activation at 10 µM (compound at 10 uM, 5 mM glucose, 1 mM ATP, room temperature) was 93.2%. The Emax (fitted maximum activation, 5 mM glucose, 1 mM ATP) worked out at 107%.

Regarding `Cn1ccc(NC(=O)c2cc(Oc3ccc(C#N)cc3F)c3c(c2)OC(C)(C)C3)n1` [Example 31, 4-(4-Cyano-2-fluoro-phenoxy)-2,2-dimethyl-2,3-dihydro-benzofuran-6-carbo-xylic acid(1-methyl-1H-pyrazol-3-yl)-amide], the activation at 10 µM under setting [1] was found to be 135%. The EC50 under setting [2] is 2.1 µM. The Emax under setting [3] amounted to 153%.

On to `Cc1ccc(NC(=O)c2cc(OC(C)C)cc3oc(C(C)C)cc23)nc1` [Example 348, 6-Isopropoxy-2-isopropyl-N-(5-methylpyridin-2-yl)benzofuran-4-carboxamide], for which, under setting [1], the activation at 10 µM is 16.6%.

As to `COCC1Cc2c(Oc3ccc(C(=O)N4CCC4)cc3)cc(C(=O)Nc3ccn(C)n3)cc2O1` (centres unmarked) [Example 208, 4-[4-(Azetidine-1-carbonyl)-phenoxy]-2-methoxymethyl-2,3-dihydro-benzofuran-6-carboxylic acid (1-methyl-1H-pyrazol-3-yl)-amide], under setting [1], the activation at 10 µM was 83.9%. Also, under setting [2], the EC50 worked out at 0.71 µM. For the same compound, the Emax under setting [3] was found to be 98%.

For `Cc1ccc(NC(=O)c2cc(Oc3ccc(S(C)(=O)=O)cc3)c3c(C)csc3c2)nc1` [Example 350, 3-Methyl-N-(5-methylpyridin-2-yl)-4-[4-(methylsulfonyl)-phenoxy]-1-benzothiophene-6-carboxamide], the activation at 10 µM under setting [1] is 11.2%.

As to `COc1cc(C(=O)Nc2ccc(C)cn2)c2nc(C)[nH]c2c1` [Example 373, 6-Methoxy-2-methyl-1H-benzoimidazole-4-carboxylic acid(5-methyl-pyridin-2-yl)-amide], under setting [1], the activation at 10 µM was -1.1%.
